Data taken from patent US12690589B2, “Herbicidal compositions comprising pyroxasulfone” (BASF SE, priority 2024, dated 2026).

Experiments:
Assay in all cases: Post-emergence application in field trials, herbicidal activity (damage scale 0 to 100%)
Type in all cases: in vivo
[1] = system: Digitaria sanguinalis (DIGSA); details: stage 22, height 10-15 cm
Experimental: (§1) In the examples below, using the method of S. R. Colby (1967) “Calculating synergistic and antagonistic responses of herbicide combinations”, Weeds 15, p. 22ff., the value E, which is expected if the activity of the individual active compounds is only additive, was calculated:
(§2) [formula] • wherein • X=percent activity using active herbicide A at an application rate a; • Y=percent activity using active herbicide B (e.g. pyroxasulfone) at an application rate b; • E=expected activity (in %) by A+B at application rates a+b.
(§3) For 3-component mixtures the synergistic response was calculated as described in: Ferry, Nancy; Stanley, Bruce H.; and Armel, Gregory (2005). “DESIGN AND ANALYSIS OF BIOLOGICAL ASSAYS OF MIXTURES,” Conference on Applied Statistics in Agriculture. https://doi.org/10.4148/2475-7772.1133. According to this publication, the Colby calculation can be generalized to a third mixing partner, Z, employing the following formula: […]
(§4) If the value found experimentally is higher than the value E calculated according to Colby, a synergistic effect is present.
(§5) On field test sites, natural weed infestation or seeded weeds were treated post-emergence of the weeds.
(§6) In the field trials, the weeds were treated as indicated below.
(§7) In the following experiments, the herbicidal activity for the individual herbicidal compositions (solo and mixture applications) was assessed at the indicated days after treatment (DAT). The assessments for the damage on undesired weeds caused by the composition was carried out using a scale from 0 to 100%, compared to the untreated control plants. Here, 0 means no damage and 100 means complete destruction of the plants.
(§8) Herbicide A-1 (342 g/l) and pyroxasulfone (500 g/l) were, together with addition of 0.25 v/v % MSO (methylated seed oil) as adjuvant, formulated in 200 l/ha water as distribution medium and sprayed with commercial flat fan nozzles.
(§9) Herbicide A-1 (342 g/l), pyroxasulfone (500 g/l) and trifludimoxazin (500 g/l) were, together with addition of 0.25 v/v % MSO (methylated seed oil) as adjuvant, formulated in 200 l/ha water as distribution medium and sprayed with commercial flat fan nozzles.
(§10) Herbicide A-1 (342 g/I), pyroxasulfone (500 g/l) and glyphosate-isopropylammonium (356 g/l) were, together with addition of 0.25 v/v % MSO (methylated seed oil) as adjuvant, formulated in 200 l/ha water as distribution medium and sprayed with commercial flat fan nozzles.
(§11) Herbicide A-1 (342 g/l), pyroxasulfone (500 g/l) and glufosinate-P-ammonium (211 g/l) were, together with addition of 0.25 v/v % MSO (methylated seed oil) as adjuvant, formulated in 200 l/ha water as distribution medium and sprayed with commercial flat fan nozzles.
(§12) Herbicide A-1 (342 g/l), pyroxasulfone (500 g/l) and 2,4-D-choline (456 g/l) were, together with addition of 0.25 v/v % MSO (methylated seed oil) as adjuvant, formulated in 200 l/ha water as distribution medium and sprayed with commercial flat fan nozzles.

Hordeum vulgare (HORVW) = details: stage 23-29, height 20-25 cm
Experimental: as §1, §2, §3, §4, §5, §6, §7, §8, §9, §10, §11, §12

[2] = system: Lolium multiflorum (LOLMU); details: stage 22-25, height 20-25 cm
Experimental: as §1, §2, §3, §4, §5, §6, §7, §8, §9, §10, §11, §12

[3] = system: Setaria verticillata (SETVE); details: stage 21-23, height 8-16 cm
Experimental: as §1, §2, §3, §4, §5, §6, §7, §8, §9, §10, §11, §12

[4] = system: Echinochloa crus-galli (ECHCG); details: stage 23-30, height 15-20 cm
Experimental: as §1, §2, §4, §5, §6, §7
Herbicide A-1 (50 g/l) and pyroxasulfone (85% WG) were, together with addition of 0.5% MSO (methylated seed oil) as adjuvant, formulated in water as distribution medium (water volume 200 l/ha) and sprayed with commercial flat fan nozzles.

[5] = 7 DAT, g ai/ha A-1 18, B 70, C-12 252
[6] = 7 DAT, g ai/ha A-1 18, B 90, C-12 252
[7] = 21 DAT, g ai/ha A-1 18, B 70, C-12 252
[8] = 21 DAT, g ai/ha A-1 18, B 90, C-12 252
[9] = 42 DAT, g ai/ha A-1 18, B 90, C-12 252
[10] = Table 8.1, 7 DAT, g ai/ha A-1 18, B 70, C-12 1066
[11] = Table 8.2, 21 DAT, g ai/ha A-1 18, B 70, C-12 1066
[12] = 7 DAT, g ai/ha A-1 12.5, B 70, C-12 252
[13] = 21 DAT, g ai/ha A-1 12.5, B 70, C-12 252
[14] = 28 DAT, g ai/ha A-1 12.5, B 70, C-12 252
[15] = 28 DAT, g ai/ha A-1 18, B 70, C-12 252
[16] = 28 DAT, g ai/ha A-1 18, B 90, C-12 252

CP(=O)(O)CC[C@H](N)C(=O)O.N [C-12, glufosinate-P-ammonium]
% Herbicidal activity [1, 5]: 70% | % Herbicidal activity [1, 6]: 70% | % Herbicidal activity [1, 7]: 70% | % Herbicidal activity [1, 8]: 70% | % Herbicidal activity ([1]; 42 DAT, g ai/ha A-1 18, B 70, C-12 252): 55% | % Herbicidal activity [1, 9]: 55% | % Herbicidal activity [1, 10]: 20% | % Herbicidal activity [1, 11]: 20% | % Herbicidal activity ([1]; Table 8.4, 42 DAT, g ai/ha A-1 18, B 70, C-12 1066): 10% | % Herbicidal activity (Hordeum vulgare (HORVW); [12]): 40% | % Herbicidal activity (Hordeum vulgare (HORVW); [5]): 40% | % Herbicidal activity (Hordeum vulgare (HORVW); [6]): 40% | % Herbicidal activity (Hordeum vulgare (HORVW); [13]): 30% | % Herbicidal activity (Hordeum vulgare (HORVW); [7]): 30% | % Herbicidal activity (Hordeum vulgare (HORVW); [8]): 30% | % Herbicidal activity (Hordeum vulgare (HORVW); [14]): 30% | % Herbicidal activity (Hordeum vulgare (HORVW); [15]): 30% | % Herbicidal activity (Hordeum vulgare (HORVW); [16]): 30% | % Herbicidal activity [2, 12]: 50% | % Herbicidal activity [2, 5]: 50% | % Herbicidal activity [2, 6]: 50% | % Herbicidal activity [2, 13]: 30% | % Herbicidal activity [2, 7]: 30% | % Herbicidal activity [2, 8]: 30% | % Herbicidal activity [2, 14]: 30% | % Herbicidal activity [2, 15]: 30% | % Herbicidal activity [2, 16]: 30% | % Herbicidal activity [3, 5]: 65% | % Herbicidal activity [3, 6]: 65% | % Herbicidal activity [3, 8]: 65% | % Herbicidal activity ([3]; 42 DAT, g ai/ha A-1 12.5, B 70, C-12 252): 35% | % Herbicidal activity [3, 9]: 35% | % Herbicidal activity [3, 10]: 25% | % Herbicidal activity ([3]; Table 8.2, 21 DAT, g ai/ha A-1 12.5, B 70, C-12 1066): 25% | % Herbicidal activity ([3]; Table 8.4, 42 DAT, g ai/ha A-1 12.5, B 70, C-12 1066): 15% | % Herbicidal activity [4, 12]: 70% | % Herbicidal activity [4, 13]: 60% | % Herbicidal activity [4, 14]: 60% | % Herbicidal activity [4, 11]: 10% | % Herbicidal activity ([4]; Table 8.2, 21 DAT, g ai/ha A-1 18, B 90, C-12 1066): 10% | % Herbicidal activity ([4]; Table 8.3, 28 DAT, g ai/ha A-1 18, B 70, C-12 1066): 10% | % Herbicidal activity ([4]; Table 8.3, 28 DAT, g ai/ha A-1 18, B 90, C-12 1066): 10%
